Data on 23 molecules can be found in ChEMBL document CHEMBL5038591, “Identification of a Novel TAR RNA-Binding Protein 2 Modulator with Potential Therapeutic Activity against Hepatocellular Carcinoma” (J Med Chem, 2021).

The source made the active and inactive calls. No cut-off for these calls is given here.

Data set [1] can be described thus: Antiproliferative activity against human QSG7701 cells incubated for 24 hrs by alamar blue assay. Format: functional, cell-based. The settings on record: QSG7701, 24 h.
The test system of data set [2] is SK-HEP1. The data set can be described thus: Antiproliferative activity against human SK-HEP1 cells incubated for 24 hrs by alamar blue assay. Format: functional, cell-based. The settings on record: SK-HEP1, 24 h.
Data set [3] relates to MHCC97. Put plainly: Antitumor activity in human MHCC97 cells xenografted in SCID mouse assessed as suppression of tumor growth at 20 mg/kg, ip administered once every 3 day for 30 days by bioluminescence analysis. Format: functional, organism-based. The conditions noted are these: time 30.0 day. (A xenograft is tissue or cells of one species grown in another, often human tumour cells in immunodeficient mice.)

Data set [4] in a line: Toxicity in SCID mouse xenografted with human MHCC97 cells assessed as increase in body weight at 40 mg/kg, ip administered once every 3 day for 30 days. Format: organism-based. The settings on record: in vivo, 720 h, time 30 day.
Data set [5] deals with MHCC97. The data set can be described thus: Antimetastatic activity against human MHCC97 cells xenografted in SCID mouse assessed as decrease in liver metastasis at 40 mg/kg, ip administered once every 3 days and measured after 10 days. The conditions noted are these: time 10.0 day. Format: functional, organism-based.
Data set [6] concerns MHCC97. Put plainly: Antitumor activity in human MHCC97 cells xenografted in SCID mouse assessed as reduction in infiltration of inflammatory cells in left middle lobe of liver at 20 mg/kg, ip measured after 30 days by H and E staining based immunohistochemical analysis. Format: functional, organism-based. The conditions noted are these: time 30.0 day.
For data set [7], the system named is MHCC97. The data set can be described thus: Antitumor activity against human MHCC97 cells xenografted in SCID mouse assessed as decrease in tumor size at 20 mg/kg, ip administered once every 3 days and measured after 10 days. Format: functional, organism-based. The settings on record: time 10.0 day.
The next data set has as its system Huh-7. Put plainly: Antiproliferative activity against human Huh-7 cells at 20 uM incubated for 24 hrs by alamar blue assay. Format: functional, cell-based. A general note: Resazurin is reduced to fluorescent resorufin, in cell work by metabolically active cells.
A further data set concerns HepG2. Put plainly: Antiproliferative activity against human HepG2 cells at 20 uM incubated for 24 hrs by alamar blue assay. Format: functional, cell-based.
For data set [8], the system named is MHCC97. Put plainly: Antiproliferative activity against human MHCC97 cells at 20 uM incubated for 24 hrs by alamar blue assay. Format: functional, cell-based.
Data set [9] concerns HeLa. The data set can be described thus: Antiproliferative activity against human HeLa cells assessed as increase in miR-21 biogenesis level measured after 24 hrs by luciferase assay. Format: functional, cell-based.
In data set [10] the test system is HeLa. Put plainly: Antiproliferative activity against human HeLa cells at 20 uM incubated for 24 hrs by alamar blue assay. Format: functional, cell-based.
For data set [11], the system named is SK-HEP1. Put plainly: Antiproliferative activity against human SK-HEP1 cells at 20 uM incubated for 24 hrs by alamar blue assay. Format: functional, cell-based.
Data set [12] relates to SK-HEP1. Put plainly: Inhibition of cell migration in human SK-HEP1 cells assessed as reduction in cell migration at 20 uM measured after 12 hrs using crystal violet staining inverted microscope based transwell assay. Format: functional.
The species named for the next data set is Homo sapiens. Put plainly: Binding affinity to PIWIL3 (unknown origin) at 30 uM incubated for 2 hrs by pull down assay.
Data set [13] addresses DNA topoisomerase 2-beta (Homo sapiens) (UniProt Q02880). The data set can be described thus: Binding affinity to TOP2B (unknown origin) at 30 uM incubated for 2 hrs by pull down assay.
The test system of data set [14] is SK-HEP1. Put plainly: Antiproliferative activity against human SK-HEP1 cells at 20 uM measured by crystal violet dye based colony formation assay. Format: functional, cell-based.
Data set [15] has as its system SK-HEP1. Put plainly: Antiproliferative activity against human SK-HEP1 cells assessed as increase in miR-106b-5p level at 20 uM by qRT-PCR analysis. Format: functional, cell-based.
Data set [16] concerns SK-HEP1. Put plainly: Antiproliferative activity against human SK-HEP1 cells assessed as decrease in miR-30a-5p level at 20 uM by qRT-PCR analysis. Format: functional, cell-based. (Real-time PCR tracks product formation cycle by cycle.)
Data set [17] concerns SK-HEP1. The data set can be described thus: Antiproliferative activity against human SK-HEP1 cells assessed as increase in miR-22-5p level at 20 uM by qRT-PCR analysis. Format: functional, cell-based.
Data set [18] concerns SK-HEP1. The data set can be described thus: Antiproliferative activity against human SK-HEP1 cells assessed as decrease in miR135a-5p level at 20 uM by qRT-PCR analysis. Format: functional, cell-based.
Data set [19] concerns MHCC97. Put plainly: Antimetastatic activity against human MHCC97 cells xenografted in SCID mouse assessed as decrease in liver metastasis at 20 mg/kg, ip administered once every 3 days and measured after 10 days. Format: functional, organism-based. The conditions noted are these: time 10.0 day.
In data set [20] the test system is SK-HEP1. The data set can be described thus: Antiproliferative activity against human SK-HEP1 cells assessed as increase in miR-26a-5p level at 20 uM by qRT-PCR analysis. Format: functional, cell-based.
Data set [21] concerns SK-HEP1. The data set can be described thus: Antiproliferative activity against human SK-HEP1 cells assessed as increase in miR-21-5p level at 20 uM by qRT-PCR analysis. Format: functional, cell-based.

DNA topoisomerase 2-beta (Homo sapiens), sequence (Q02880 whole entry): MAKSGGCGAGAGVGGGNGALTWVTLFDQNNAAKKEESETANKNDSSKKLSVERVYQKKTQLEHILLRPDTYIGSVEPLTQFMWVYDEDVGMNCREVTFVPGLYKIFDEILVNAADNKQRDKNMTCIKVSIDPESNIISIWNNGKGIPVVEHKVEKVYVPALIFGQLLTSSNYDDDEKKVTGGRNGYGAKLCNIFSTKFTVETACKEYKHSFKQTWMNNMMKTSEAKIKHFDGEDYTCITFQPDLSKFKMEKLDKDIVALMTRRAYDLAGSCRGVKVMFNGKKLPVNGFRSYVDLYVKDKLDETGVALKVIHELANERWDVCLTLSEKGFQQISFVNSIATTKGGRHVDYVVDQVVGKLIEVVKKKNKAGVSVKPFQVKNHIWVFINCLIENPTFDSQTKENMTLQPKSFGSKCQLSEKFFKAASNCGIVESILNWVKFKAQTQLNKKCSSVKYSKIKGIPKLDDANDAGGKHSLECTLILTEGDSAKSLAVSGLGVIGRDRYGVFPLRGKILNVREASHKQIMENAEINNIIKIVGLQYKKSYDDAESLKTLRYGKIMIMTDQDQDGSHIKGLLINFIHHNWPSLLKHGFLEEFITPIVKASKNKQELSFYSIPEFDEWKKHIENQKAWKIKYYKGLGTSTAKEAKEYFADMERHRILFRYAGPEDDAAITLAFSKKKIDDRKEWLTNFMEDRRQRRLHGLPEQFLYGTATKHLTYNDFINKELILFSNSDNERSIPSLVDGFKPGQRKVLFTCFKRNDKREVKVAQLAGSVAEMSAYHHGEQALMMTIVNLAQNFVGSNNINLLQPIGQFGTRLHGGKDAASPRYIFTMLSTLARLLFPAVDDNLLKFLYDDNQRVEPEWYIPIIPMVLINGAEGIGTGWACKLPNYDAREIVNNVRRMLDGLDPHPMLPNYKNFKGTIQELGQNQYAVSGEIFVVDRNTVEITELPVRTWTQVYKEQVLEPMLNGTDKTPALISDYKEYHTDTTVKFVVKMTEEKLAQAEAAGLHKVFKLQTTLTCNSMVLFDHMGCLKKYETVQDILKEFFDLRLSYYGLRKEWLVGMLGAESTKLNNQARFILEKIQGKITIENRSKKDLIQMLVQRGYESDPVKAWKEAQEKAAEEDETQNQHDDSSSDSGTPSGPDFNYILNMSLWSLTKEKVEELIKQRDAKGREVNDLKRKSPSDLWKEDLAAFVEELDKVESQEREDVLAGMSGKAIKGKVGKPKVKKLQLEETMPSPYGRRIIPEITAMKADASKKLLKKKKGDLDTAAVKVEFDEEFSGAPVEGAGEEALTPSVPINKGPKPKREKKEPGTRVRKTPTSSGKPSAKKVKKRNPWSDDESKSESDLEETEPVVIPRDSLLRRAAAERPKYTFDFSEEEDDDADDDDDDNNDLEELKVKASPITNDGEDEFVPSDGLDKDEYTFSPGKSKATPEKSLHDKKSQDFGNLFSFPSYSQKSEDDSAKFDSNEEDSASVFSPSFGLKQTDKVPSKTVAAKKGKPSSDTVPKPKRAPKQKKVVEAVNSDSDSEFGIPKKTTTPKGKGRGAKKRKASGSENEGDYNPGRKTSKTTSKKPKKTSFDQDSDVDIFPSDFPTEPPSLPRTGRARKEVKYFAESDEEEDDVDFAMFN

With `CCN(CC)CCNC(=O)c1cc2c(c(OC)c1-c1ccc(N(C)C)cc1)OCO2`, the 50% inhibitory concentration (IC50) (in [1]; in the data set on SK-HEP1 [2]) was above 100 µM in each case.
In the case of `CNC(=O)c1cc(Oc2ccc(NC(=O)Nc3ccc(Cl)c(C(F)(F)F)c3)cc2)ccn1` [SORAFENIB], the outcome in the data set with MHCC97 [3], with MHCC97 [5], in the data set on MHCC97 [6] and in the data set on MHCC97 [7] was Active. Besides, in data set [4], the Activity entry is “Toxic”.
As to `COc1cccc(NC(=O)c2cc3c(c(OC)c2-c2ccc(N(C)C)cc2)OCO3)c1`, the IC50 – broadly, the concentration at which inhibition is half-maximal – in data set [1] came out at 64.4 µM; in the data set with SK-HEP1 [2], 31.6 µM.
Consider `COC(=O)c1cc2c(c(OC)c1-c1ccc(N(C)C)cc1)OCO2`, for which the results for the half-maximal inhibitory concentration (IC50) (in data set [1]; with SK-HEP1 [2]) were 68.5 µM and 29.9 µM, respectively.
For the molecule `CNCC(=O)N(C)c1ccc(-c2c(C(=O)OC)cc3c(c2OC)OCO3)cc1`, the concentration for half-maximal inhibition (IC50) (in [1]; in the data set on SK-HEP1 [2]) was above 100 µM each time.
As to `COC(=O)c1cc2c(c(OC)c1-c1ccc(N(C)C(=O)c3ccccc3)cc1)OCO2`, the result in the data set with Huh-7, in the data set with HepG2, with MHCC97 [8], with HeLa [10] and with SK-HEP1 [11] was Active. For the same molecule, the half-inhibitory concentration (IC50) was 48.4 µM in data set [1], 19.4 µM in the data set on SK-HEP1 [2] and 13 µM in the data set on HeLa [9].
On to `COC(=O)c1cc2c(c(OC)c1-c1ccc(N(C)C(=O)CNC(=O)OC(C)(C)C)cc1)OCO2`, for which the IC50 is 63.2 µM in [1] and 39.6 µM in the data set on SK-HEP1 [2].
On to `COC(=O)c1cc2c(c(OC)c1-c1ccc(N(C)S(C)(=O)=O)cc1)OCO2`, for which the IC50 in data set [1] is 75.9 µM; in the data set on SK-HEP1 [2], 47 µM.
In the same order, the values of `COC(=O)c1cc2c(c(OC)c1-c1ccc(N(C)S(=O)(=O)c3ccc([N+](=O)[O-])cc3)cc1)OCO2` are 69.3 µM and 34.2 µM.
On to `COC(=O)c1cc2c(c(OC)c1-c1ccc(N(C)C(=O)CCCCCNC(=O)CCCC[C@@H]3SC[C@@H]4NC(=O)N[C@@H]43)cc1)OCO2`, for which the inhibition entry with SK-HEP1 [12] was “Active”. In addition, the result (in the data set listed under Homo sapiens; in data set [13]) was inactive. The outcome with SK-HEP1 [14] was Active.
`CNc1ccc(-c2c(C(=O)OC)cc3c(c2OC)OCO3)cc1`: the inhibition result with SK-HEP1 [12] is “Active”. The half-inhibitory concentration (IC50) in data set [1] is 67.2 µM; with SK-HEP1 [2], 24.4 µM; in the data set with HeLa [9] it was 15.6 µM. Further, the outcome in the data set on SK-HEP1 [14] was Active.
For `COC(=O)c1cc2c(c(OC)c1-c1ccc(N(C)C(=O)[C@H](C)N)cc1)OCO2`, the half-inhibitory concentration (IC50) came out at 74.2 µM in data set [1] and 64.7 µM in the data set on SK-HEP1 [2].
As to `COC(=O)c1cc2c(c(OC)c1-c1ccc(N(C)C(=O)CN(C)C(=O)OC(C)(C)C)cc1)OCO2`, the half-maximal inhibitory concentration (IC50) was above 100 µM in data set [1] and 89.7 µM with SK-HEP1 [2].
As to `COc1c2c(cc(C(=O)Nc3ccccc3I)c1-c1ccc(N(C)C)cc1)OCO2`, the concentration for half-maximal inhibition (IC50) in [1] stood at 56.9 µM; in the data set with SK-HEP1 [2] it was 35.8 µM.
As to `COC(=O)c1cc2c(c(OC)c1-c1ccc(N(C)S(=O)(=O)c3ccc(Br)cc3)cc1)OCO2`, the values for the half-maximal inhibitory concentration (IC50) (in data set [1]; in the data set with SK-HEP1 [2]) were 62.4 µM and 28.7 µM, respectively.
With `COC(=O)c1cc2c(c(OC)c1-c1ccc(N(C)S(=O)(=O)c3ccc(F)cc3)cc1)OCO2`, the half-inhibitory concentration (IC50) is 67.9 µM in data set [1] and 31.7 µM in the data set with SK-HEP1 [2].
On to `COC(=O)c1cc2c(c(OC)c1-c1ccc(N(C)C(=O)CN)cc1)OCO2`, for which the IC50 (in data set [1]; in the data set on SK-HEP1 [2]) was above 100 µM in each case.
On to `COC(=O)c1cc2c(c(OC)c1-c1ccc(N(C)S(=O)(=O)c3ccccc3)cc1)OCO2`, for which the IC50 in data set [1] was 61.4 µM; in the data set on SK-HEP1 [2], 26.7 µM; with HeLa [9] it was 19.5 µM.
For `COc1c2c(cc(C(=O)NCc3ccccc3)c1-c1ccc(N(C)C)cc1)OCO2`, the IC50 was 56.4 µM in data set [1], 23.6 µM with SK-HEP1 [2] and 21.9 µM in the data set with HeLa [9].
In the case of `COC(=O)c1cc2c(c(OC)c1-c1ccc(N(C)C(=O)[C@H](C)NC(=O)OC(C)(C)C)cc1)OCO2`, the values for the IC50 (in [1]; with SK-HEP1 [2]) were 59.5 µM and 40.9 µM, respectively.
Consider `CCn1cc(C(=O)O)c(=O)c2cc(F)c(N3CCNCC3)nc21` [ENOXACIN], for which the result in the data set with MHCC97 [3], with SK-HEP1 [15], with SK-HEP1 [17], with SK-HEP1 [20], in the data set on MHCC97 [6] and in the data set with MHCC97 [7] was Active. Also, the outcome in the data set on SK-HEP1 [21] was Active. Further, the outcome in the data set with SK-HEP1 [16], with SK-HEP1 [18] and in the data set on MHCC97 [19] was inactive. Moreover, the figures for the IC50 (in data set [1]; in the data set with SK-HEP1 [2]; with HeLa [9]) were 72.4 µM, 25 µM and 25.8 µM, respectively.
Consider `CNc1ccc(-c2c(C(=O)OC)cc3c(c2OC)OCO3)cc1Cl`, for which the concentration for half-maximal inhibition (IC50) in [1] turned out to be 50.3 µM; in the data set on SK-HEP1 [2], 22.7 µM.
Consider `COc1c2c(cc(C(=O)Nc3ccccc3)c1-c1ccc(N(C)C)cc1)OCO2`, for which the IC50 in data set [1] came to 58.5 µM; with SK-HEP1 [2], 38.4 µM.
